Assay results: patent US11771685B2, “Compounds for the treatment of neurological or mitochondrial diseases” (MUSC FOUNDATION FOR RESEARCH DEVELOPMENT, priority 2018, dated 2023)
Like-named read-outs stand apart in the source and are kept apart here.

Legend:
[1] = test system: HT22 cells; experiment: HT22 oxytosis (glutamate-induced cell death) neuroprotection assay; format: cell-based, mouse; details: 10 mM Glu
Protocol: The HT22 murine hippocampal cell system was chosen as an initial phenotypic screen for neuroprotective efficacy (Andreux et al., 2013; Andreux et al., 2014; Ohlow et al., 2017; Schubert and Maher, 2012). HT22 cells exposed to high extracellular Glu ([…]) undergo oxytosis, a non-apoptotic programmed cell death involving glutathione (GSH) depletion followed by ROS accumulation, oxidative damage, and a cytotoxic signaling cascade (Tan et al., 2001). Glu blocks the −xC cystine antiporter, causing (Tan et al., 2001) cells to accumulate severe oxidative stress, mitochondrial depolarization, disrupted mitochondrial morphology, and Ca^2+ influx (Tan et al., 2001; Yang et al., 2011; Cheng et al., 2013—cellular events that may occur in neurological diseases, including epilepsy. Thus, the immortalized HT22 cell line is a well-established model of neuronal oxidative stress (Sagara and Schubert, 1998; Matsumoto et al., 1996; Albrecht et al., 2010; Ha and Park, 2006; van Leyen et al., 2005; Tobaben et al., 2011), and a verified model of neurodegeneration to screen for potential neuroprotective drugs (Albrecht et al., 2010; van Leyen et al., 2008; Lewerenz et al., 2009; Lewerenz et al., 2003).
Consistent with that work, most of the 2-amino compounds achieved protection of HT22 cells against glutamate-induced oxytosis in the nM to μM range. […] Neuroprotection based on relative cell viability compared to +Glu and −Glu control cells was measured.
The HT22 neuronal cell line is a subclone of HT4, derived from the mouse hippocampus (Morimoto and Koshland, 1990). […] The HT22 cells used in this study were kindly provided by Dr. David Schubert (The Salk Institute for Biological Studies, La Jolla, CA, USA). The cells were grown in Dulbecco's Modified Eagle's Medium (DMEM/high glucose) supplemented with 10% fetal bovine serum (Hyclone) and 5 mL of antibiotic-antimycotic (Amphotericin B, Penicillin, and Streptomycin; Invitrogen) at 37° C. in 5% CO2.
HT-22 cells were seeded onto 96-well plates at 2.5×10^3 cells per well in 75 μL of medium and maintained at 37° C. in 5% CO2 overnight prior to the initiation of experimental treatments. For glutamate toxicity testing, cells were subsequently treated with 25 μL of medium containing glutamate (monosodium glutamate, Sigma, 1 M stock concentration in media, to achieve a final concentration of 10 mM) plus compound (stock in DMSO) and maintained at 37° C. in 5% CO2 for 24 hr. CellTiter-Blue® (resazurin cell viability assay reagent) was then added to each well at a final concentration of 0.125 mg/mL. The mixture was allowed to incubate for 2-4 hr until sufficient color change occurred. Cell viability was measured as a function of resorufin fluorescence intensity using a Tecan M200 Pro spectrophotometer, 560 nm/590 nm (excitation/emission). Cell viability was calculated as a percentage compared with untreated controls. EC50s were determined using GraphPad Prism's “log(inhibitor) vs. normalized response-Variable slope” function. Morphology of HT22 cells following treatments was determined by phase-contrast microscopy.
(§1) Statistical analyses were performed with GraphPad Prism 6 software. For the in vitro HT22 oxytosis assay, dose-response data were fit using GraphPad Prism's log(inhibitor) vs normalized response-variable slope parameters to determine EC50 values and 95% confidence intervals. For the zebrafish locomotive anti-seizure activity data, multiple comparisons were made using a one-way analysis of variance (ANOVA) with a Kruskal-Wallis Test, followed by the Dunn's Method to determine significant differences between all pairs or between control and experimental groups using the Dunn Method for Joint Ranking. Differences were considered statistically significant when p<0.05. Data from zebrafish experiments are represented as scatter dot plots of individual measurements, with means±standard deviation indicated by bars.

[2] = test system: PTZ-induced seizure activity in zebrafish larvae; experiment: Zebrafish PTZ-induced seizure model; format: in vivo; details: for minimal effective concentration / anti-seizure activity: 7 dpf larvae; for minimal effective concentration: 1 hr pre-treatment, 10 mM PTZ, read-out: Anti-seizure activity: lowest tested dose with significant difference vs PTZ-only group; for anti-seizure activity: PTZ; for inhibition in vivo at 5 µM / inhibition in vivo at 10 µM: read-out: reduction of PTZ-induced locomotor activity
Protocol: The zebrafish PTZ-induced seizure model was used to determine the most promising compounds' in vivo efficacy. Zebrafish larvae (7 dpf) were treated with the compound for 1 hr prior to inducing seizures with PTZ. As established by previous larval zebrafish anti-seizure studies (Rahn et al., 2014; Hansen et al., 2004; Baraban et al., 2005), total distance traveled by each fish after seizure induction was measured and used as a proxy for seizure activity. Following collection of locomotor data, observation of a startle response and visual inspection for abnormal morphology confirmed that alterations in swim activity were not caused by compound toxicity.
We induced seizures in 7 dpf zebrafish larvae by the addition of […] PTZ as originally developed by Baraban et al., 2005. In a 48-well plate, one 7-dpf zebrafish was added per well. Larvae were dosed with each compound at a sub-lethal dose 1 hr prior to PTZ treatment. Two control rows were included with each experiment—tank water only control and PTZ only. Seizures were induced by adding PTZ to wells to yield a final concentration of 10 mM. After 5 min, the plate was transferred to the Daniovision instrument (Noldus Information Technology) and the chamber light was turned on. After 2 min, MediaRecorder (Noldus) was used to record video for 15 min. A small number of videos were acquired at 25 frames per second, but the majority of data were acquired at 60 frames per second. […] Ethovision XT software (Noldus) was used to track the fish movement from the video images in order to calculate the total distance traveled over 15 min. All experimental comparisons were made between animals from the same clutch.
as §1

[3] = test system: Zebrafish larvae; experiment: In vivo toxicology in zebrafish larvae; details: 7 dpf larvae, 5-20 μM, observed 1, 5 and 24 hr
Protocol: Zebrafish larvae, 7 days post-fertilization (dpf), were exposed to compounds at 20, 15, 10, and 5 μM, six larvae per compound. Animals were observed 1, 5, and 24 hr after dosing for overt toxicity (altered survival, morbidity, morphological deformity). Heart rate, behavior, and startle response were monitored at each time point.
Zebrafish (AB strain) were obtained from the Zebrafish International Resource Center (supported by P40 RR012546 from NIH—NCRR). Zebrafish were maintained and crossed according to standard methods (Westerfield, 2000). Fertilized eggs were collected and placed in E3 embryo medium and positioned in an incubator set at 28.5° C. with a 14/10-hr light/dark cycle (Kimmel et al., 1995). To determine the lethal dose of each compound, 96-well plates containing one zebrafish (7 days post-fertilization, dpf) per well in 100 μL of tank water were used. 100 μL of each compound (0.5-15 μM) was added to each well for 12 animals (one row) for a final volume of 200 μL. One row of larvae was used as dimethyl sulfoxide (DMSO)-only controls. […] All zebrafish studies were approved by the Medical University of South Carolina Institutional Animal Care and Use Committee (#180278) and performed in accordance with the guidelines.
Using a 96-well plate, 7 dpf zebrafish were placed one per well with 100 μL of tank water. 100 μL of each compound was then added to each well for 12 animals (one row) for a final volume of 200 μL. One row of zebrafish larvae was used as DMSO only controls.

[4] = HT22 cells, 24 hr, 95% CI in parentheses
[5] = Mus musculus, HT-22, 24 h, HT22 cells, 24 hr, 95% CI in parentheses
[6] = Mus musculus, HT-22, HT22 cells
[7] = Mus musculus, HT-22, HT22 cells, 24 hr, 95% CI in parentheses

In the case of `O=C1C=C(NCC#Cc2cccc(C(F)(F)F)c2)C(=O)c2ccccc21` [Compound 13, 2-((3-(3-(Trifluoromethyl)phenyl)prop-2-yn-1-yl)amino)naphthalene-1,4-dione], the EC50 [1, 4] is reported as 584 nM, the EC50 [1, 5] is reported as about 500 nM and the minimal effective concentration [2] is reported as over 10 µM. It also gave a minimal effective concentration ([2]; Danio rerio) of over 10 µM.
In the case of `CC(C)=CCC/C(C)=C/CNC1=C(C)C(=O)c2ccccc2C1=O` [Compound 24, (E)-2-((3,7-Dimethylocta-2,6-dien-1-yl)amino)-3-methylnaphthalene-1,4-dione], the EC50 [1, 5] is reported as 2740 nM, the EC50 [1, 6] is reported as about 2700 nM and the “anti-seizure activity” value [2] is reported as “ineffective”. It also gave a minimal effective concentration ([2]; Danio rerio) of over 10 µM.
With `O=C1C=C(NCC#Cc2cccc(F)c2)C(=O)c2ccccc21` [Compound 9, 2-((3-(3-Fluorophenyl)prop-2-yn-1-yl)amino)naphthalene-1,4-dione] the EC50 [1, 5] was 216 nM.
For `CCCCC#CCOC1=CC(=O)c2ccccc2C1=O` [Compound 31, 2-(Hept-2-yn-1-yloxy)naphthalene-1,4-dione], the EC50 [1, 5] was 76.1 nM, the “anti-seizure activity” value [2] was “reduced swim distance to control levels” and the minimal effective concentration ([2]; Danio rerio) was 10 µM. The inhibition in vivo at 5 µM ([2]; Danio rerio) was 48% and the “toxic effects during PTZ-induced seizure experiments” value ([2]; lack of survival or behavioral impairments) was “higher-than-normal occurrences of toxic effects”.
`C=CCC#CCNC1=CC(=O)c2ccccc2C1=O` [Compound 6, 2-(Hex-5-en-2-yn-1-ylamino)naphthalene-1,4-dione] showed an EC50 [1, 5] of 2640 nM, a minimal effective concentration ([2]; Danio rerio) of 10 µM and an inhibition in vivo at 5 µM ([2]; Danio rerio) of about 65%. It also gave an inhibition in vivo at 10 µM ([2]; Danio rerio) of 85%.
With `O=C1C=C(NCC#Cc2ccccc2)C(=O)c2ccccc21` [Compound 8, 2-((3-Phenylprop-2-yn-1-yl)amino)naphthalene-1,4-dione] the EC50 [1, 7] was 162 nM and the overt toxicity observation [3] was “not lethal at any concentration”.
In the case of `CC#CCOC1=CC(=O)c2ccccc2C1=O` [Compound 28, 2-(But-2-yn-1-yloxy)naphthalene-1,4-dione], the EC50 [1, 5] is reported as 168 nM.
`CCCCOC1=CC(=O)c2ccccc2C1=O` [Compound 26, 2-Butoxynaphthalene-1,4-dione] gave an EC50 [1, 7] of 78 nM.
In the case of `O=C1C=C(NCC#Cc2cccnc2)C(=O)c2ccccc21` [Compound 11, 2-((3-(Pyridin-3-yl)prop-2-yn-1-yl)amino)naphthalene-1,4-dione], the EC50 [1, 5] is reported as 290 nM.
For `O=C1C=C(NCC#Cc2ccc(C(F)(F)F)cc2)C(=O)c2ccccc21` [Compound 12, 2-((3-(4-(Trifluoromethyl)phenyl)prop-2-yn-1-yl)amino)naphthalene-1,4-dione], the EC50 [1, 4] was 566 nM, the EC50 [1, 5] was about 500 nM and the minimal effective concentration [2] was over 10 µM. It also gave a minimal effective concentration ([2]; Danio rerio) of over 10 µM.
Work on `CCC#CCOC1=CC(=O)c2ccccc2C1=O` [Compound 29, 2-(Pent-2-yn-1-yloxy)naphthalene-1,4-dione] yielded an EC50 [1, 4] of 307 nM, an EC50 [1, 5] of about 300 nM and a minimal effective concentration ([2]; Danio rerio) of at most 5 µM. It also gave an inhibition in vivo at 5 µM ([2]; Danio rerio) of 60% and an inhibition in vivo at 10 µM ([2]; Danio rerio) of 53%.
`O=C1C=C(OCc2ccccc2)C(=O)c2ccccc21` [Compound 27, 2-(Benzyloxy)naphthalene-1,4-dione] showed an EC50 [1, 5] of 168 nM.
For `CC#CCC(CO)NC1=CC(=O)c2ccccc2C1=O` (racemic) [Compound 18, Rac-2-((1-hydroxyhex-4-yn-2-yl)amino)naphthalene-1,4-dione], the EC50 [1, 5] was 2170 nM, the EC50 [1, 6] was over 2000 nM and the minimal effective concentration ([2]; Danio rerio) was over 10 µM.
For `CCCC#CCOC1=CC(=O)c2ccccc2C1=O` [Compound 30, 2-(Hex-2-yn-1-yloxy)naphthalene-1,4-dione], the EC50 [1, 5] was 249 nM, the minimal effective concentration ([2]; Danio rerio) was 5 µM and the inhibition in vivo at 5 µM ([2]; Danio rerio) was 53%. The inhibition in vivo at 10 µM ([2]; Danio rerio) was 68%.
Compound `C#CCC(C)NC1=CC(=O)c2ccccc2C1=O` (racemic) [Compound 20, Rac-2-(pent-4-yn-2-ylamino)naphthalene-1,4-dione] has an EC50 [1, 5] of 3690 nM, an EC50 [1, 6] of over 2000 nM and a minimal effective concentration ([2]; Danio rerio) of over 10 µM.
For `CC(C)=CCC/C(C)=C/CNC1=CC(=O)c2ccccc2C1=O` [Compound 22, (E)-2-((3,7-Dimethylocta-2,6-dien-1-yl)amino)naphthalene-1,4-dione], the EC50 ([1]; HT22 cells) was about 9000 nM, the EC50 [1, 5] was 9220 nM and the EC50 [1, 6] was about 9200 nM. For the same compound, the “anti-seizure activity” value [2] was “activity at 20 and 40 μM that resulted from sedation” and the minimal effective concentration ([2]; Danio rerio) was 20 µM.
For `COc1cccc(C#CCNC2=CC(=O)c3ccccc3C2=O)c1` [Compound 10, 2-((3-(3-Methoxyphenyl)prop-2-yn-1-yl)amino)naphthalene-1,4-dione], the EC50 [1, 5] was 215 nM and the minimal effective concentration ([2]; Danio rerio) was over 20 µM.
`C#CCC(NC1=CC(=O)c2ccccc2C1=O)c1ccccc1` (racemic) [Compound 21, Rac-2-((1-phenylbut-3-yn-1-yl)amino)naphthalene-1,4-dione] showed an EC50 [1, 5] of 6150 nM and a minimal effective concentration ([2]; Danio rerio) of 5 µM.
With `CC(C)=CCC/C(C)=C/CNC1=C(Br)C(=O)c2ccccc2C1=O` [Compound 23, (E)-2-Bromo-3-((3,7-dimethylocta-2,6-dien-1-yl)amino)naphthalene-1,4-dione] the EC50 [1, 5] was 133 nM, the “anti-seizure activity” value [2] was “ineffective” and the minimal effective concentration ([2]; Danio rerio) was over 10 µM.
